# Measurements from US20090286839A1, “PHYTONUTRIENT COMPOSITIONS FROM MUSHROOMS OR FILAMENTOUS FUNGI AND METHODS OF USE” (priority 2006, published 2009).
# How the values were obtained:
# [1] = Hydroxyl radical averting capacity (HORAC) assay; format: biochemical; settings: pure ERG
# Text: The HORAC assay was based on a previously reported method, however caffeic acid (CA) was used as the standard due to CA providing a wider linear range as compared to gallic acid. All data was expressed as micromoles of caffeic acid equivalents (CAE) equivalents per gram of dry weight (μmol CAE/g dw). The freeze-dried forms of the mushrooms were used for testing and the data was reported as dry weight. When reporting amount per serving, the data was converted to a fresh weight basis according to the dry weight of the fresh mushroom samples. For each analysis, triplicate extractions were performed from one crop and used for analysis.
# HO. radicals are highly reactive and can be generated via the Fenton reaction. Due to the fact that HO. radicals are short lived with a high rate constant, it is unlikely that antioxidants present at biological concentrations will be able to scavenge the HO radical. However antioxidants, which are able to act as metal chelators, may be able to prevent the formation of the HO. radical, thus acting as a preventative antioxidant. The HORAC assays measures the ability of the antioxidant present to chelate Co(II) prior to the Fenton reaction cocurring. HORAC values ranged between 3.0-13.6 μmole CAE/g dw. There was a significant difference found within the different A. bisporus mushrooms. […]
# [2] = Peroxynitrite radical averting capacity (NORAC) assay; format: biochemical; settings: pure ERG
# Procedure: The NORAC assay was modified on a previously reported method. All data was expressed as micromoles of Trolox equivalents (TE) equivalents per gram of dry weight (μmol of TE/g dw). The freeze-dried forms of the mushrooms were used for testing and then the data was converted to a FW basis according to the dry weight of the fresh mushroom samples, which were obtained from one crop. For each analysis, triplicate extractions were performed and used for analysis.
# Under physiological conditions, the formation of ONOO^− can easily result due to the cellular production and interaction of nitric oxide and superoxide radicals. Damage to protein, especially aromatic compounds can result from ONOO^−. A limited number of papers have been published regarding the antioxidant capacity against ONOO^−. The NORAC assay is a relatively new assay. SIN-1 is used in the NORAC assay, which when heated decomposes to produce ONOO^−. DHR-123 (non-fluorescent) is used as the probe, which becomes oxidized by the presence of ONOO^− to become rhodamine 123 (fluoresces). If antioxidants present in the sample are able to scavenge ONOO^−, a delay in fluorescence will occur due to the protection of the probe offered by the antioxidant. Generally, compounds that can scavenge ONOO^− will provide high NORAC values. […]
# [3] = system: cortical neurons; assay: 2% Low Serum Assay, neuronal viability by MTT method; format: cell-based, chicken
# Procedure: Lohman or Hisex Brown chicken one-day-old fertilized eggs were obtained and stored in a lab under appropriate conditions of 12° C. and 80% humidity. At embryonic day 0 eggs were transferred into a breeding incubatore and stored under permanent turning until embryonic day 9 at 37.8° C. and 55% humidity. For isolation of neurons 4 to 6 chicken embryos were used per experiment. Neurons were plated out and nerve cells maintained in a nutrition medium at 37° C., 97% humidity, and 5% CO2.
# Test Item (T.I.) and Reference Item (R.I.) were administered at the start of the experiments for 8 days. Neurons were maintained in the same medium without change or addition of media until the end of the experiments. During the whole culture period of 8 days cells stay in an incubator at 37° C., 97% humidity, and 5% CO2.
# From T.I.1, L-Ergothioneine a 128 mM solution was prepared in medium and directly added to the cells at the start of the experiments for a total of 8 days. […] The pellet was discarded and only from the supernatant 1.25 μl up to 160 μl/ml medium was administered. R.I.2. the neurotrophic standard NTS is a ready to use injection solution and was applied in concentrations from 1.25 μl up ro 160 μl/ml medium. The stock-solution for R.I.3, Trolox, was made in a concentration of 2 mM in PBS and the appropriate concentrations added to the cells at day 1.
# To the isolated nerve cell T.I.1 was added in a dose range of 0.5, 1, 2, 4, 8, 16, 32, 64 mM. The supernatant of R.I.1 and the ready to use injection solution of R.I.2 were applied in the concentration 1.25, 2.5, 5, 10, 20, 40, 80, 160 μl/ml medium. R.I.3 was tested in the concentrations of 1, 2, 4, 8, 16, 31.25, 62.5, 125 μM. Experiments were performed at two different days, whereby on each day two identical microplates were prepared with two to four wells per T.I. or R.I. (n=8). In this 2% cell stress assay substances were administered at start of the experiment (day 1 in vitro) for the whole experimental period that means for eight days in vitro.
# Neuronal viability of cultures was determined with the MTT-assay using a plate-reader (570 nm) as described in SOP MET009. The MTT-assay is a sensitive assay measuring the mitochondrial dehydrogenase activity in viable cells only. It is performed according to the method described by Mosmann, J. Immunol. Meth., 1983, 55-63. This assay is based on the reduction of yellow MTT (3-(4,5-dimethylthiazol-2-yl)-2,5,diphenyl tetrazolium bromide), to dark blue formazan crystals by mitochondrial dehydrogenases (succinate dehydrogenase). Since this reaction is catalyzed in living cells only the assay can be used for the quantification of cell viability.
# For the determination of cell viability MTT solution was added to each well in a final concentration of 0.5 mg/ml. After 2 hours the MTT containing medium was aspired. Cells were lysed with 3% SDS, formazan crystals dissolved in isopropanol/HCI. To estimate optical density a plate reader (Anthos HT II) was used at wavelength 570 nm. Neuronal viability is expressed as optical densities (ODs).
# [4] = cited from earlier work
# [5] = Super-oxide radical averting capacity (SORAC) assay; format: biochemical; settings: pure ERG
# Text: SORAC assays were based on the previously described method by Zhao and coworkers. Simply, hydroethidine was used as a probe in measuring O2^− scavenging capacity. […] Addition of SOD inhibits the hydroethidine oxidation. All data was expressed as superoxide equivalents per gram of dry weight (kunitSOD eq/g dw). The freeze-dried forms of the mushrooms were used for testing and the data was reported as dry weight. When reporting amount per serving, the data was converted to a fresh weight basis according to the dry weight of the fresh mushroom samples. For each analysis, triplicate extractions from one crop were performed and used for analysis.
# Another biological relevant free radical is O2^− which is less reactive than HO., however O2^− does react very quickly with certain radicals, such as nitric oxide. The SORAC assay is a newly developed assay. Hydroethidine (nonfluorescent) is used as the probe, which is oxidized (fluoresces) in the presence of O2^− that is generated from a xanthine and xanthine oxidase mixture. If antioxidants present in the sample are able to scavenge O2^−, a delay in fluorescence will occur due to the protection of the probe offered by the antioxidant. Generally, compounds that can scavenge O2^− will provide high SORAC values. […]
# [6] = Hydrophilic ORACFL assay (ORAChydro); format: biochemical; settings: pure ERG
# Text: The lipophilic ORACFL assay (ORAClipo) was based on a previous reported method. Hydrophilic ORACFL assay (ORAChydro) was based on a previous reported method. All data was expressed as micromoles of Trolox equivalents (TE) per gram of dry weight (μmol TE/g dw). The freeze-dried forms of the mushrooms were used for testing and the data was reported as dry weight. When reporting amount per serving, the data was converted to a fresh weight basis according to the dry weight of the fresh mushroom samples. For each analysis, triplicate extractions were performed from one crop and used for analysis. ORACtotal was determined by calculating the sum of ORAClipo and ORAChydro results.
# [7] = 0.5 mM, addition at 1DIV, 8 days, n=8
# [8] = 1 mM, addition at 1DIV, 8 days, n=8
# [9] = 2 mM, addition at 1DIV, 8 days, n=8
# [10] = 4 mM, addition at 1DIV, 8 days, n=8
# [11] = 8 mM, addition at 1DIV, 8 days, n=8
# [12] = 16 mM, addition at 1DIV, 8 days, n=8
# [13] = 32 mM, addition at 1DIV, 8 days, n=8
# [14] = 64 mM, addition at 1DIV, 8 days, n=8
# [15] = Lohman or Hisex Brown, chicken, 8 days
# [16] = Gallus gallus, Cortical neurone, 192 h, read-out: viability, mean in % (control is 100%)
structure (smiles),measurement,setting,value
"C[N+](C)(C)[C@@H](Cc1c[nH]c(=S)[nH]1)C(=O)[O-] [Ergo, L-ergothioneine]",HORAC value of ERG,[1],231 μmole CAE/g
same,NORAC value of ERG,[2],407 μmole TE/g
same,"viability, mean in % (control is 100%)",[3]; [7],98.13%
same,"viability, mean optical density",[3]; [7],0.053 OD
same,"viability, mean in % (control is 100%)",[3]; [8],104.42%
same,"viability, mean optical density",[3]; [8],0.057 OD
same,"viability, mean in % (control is 100%)",[3]; [9],105.10%
same,"viability, mean optical density",[3]; [9],0.057 OD
same,"viability, mean in % (control is 100%)",[3]; [10],110.39%
same,"viability, mean optical density",[3]; [10],0.060 OD
same,"viability, mean in % (control is 100%)",[3]; [11],119.84%
same,"viability, mean optical density",[3]; [11],0.065 OD
same,"viability, mean in % (control is 100%)",[3]; [12],189.48%
same,"viability, mean optical density",[3]; [12],0.103 OD
same,"viability, mean in % (control is 100%)",[3]; [13],262.66%
same,"viability, mean optical density",[3]; [13],0.153 OD
same,"viability, mean in % (control is 100%)",[3]; [14],407.45%
same,"viability, mean optical density",[3]; [14],0.221 OD
same,neuroprotective concentration range,"[3]; 2% low serum, 8 days, MTT",≥ 4 mM
same,maximum neuronal viability (% of untreated control),"[3]; 2% low serum, 8 days, MTT, best concentration tested",407%
same,solubility in nonpolar solvents,[4]; nonpolar solvents,insoluble
same,water soluble up to,"[4]; water, room temperature",up to 0.9 M
same,SORAC value of ERG,[5],non-detectable
same,ORAChydro value of ERG,[6],"6,440 μmole TE/g"
COc1c(O)cc2oc3cc(O)c(CC=C(C)C)c(O)c3c(=O)c2c1CC=C(C)C [Mangostin],"viability, mean optical density","[3]; 1.25 μl/ml, addition at 1DIV, 8 days, n=8",0.051 OD
same,"viability, mean optical density","[3]; 2.5 μl/ml, addition at 1DIV, 8 days, n=8",0.052 OD
same,"viability, mean optical density","[3]; 5 μl/ml, addition at 1DIV, 8 days, n=8",0.053 OD
same,"viability, mean optical density","[3]; 10 μl/ml, addition at 1DIV, 8 days, n=8",0.076 OD
same,"viability, mean optical density","[3]; 20 μl/ml, addition at 1DIV, 8 days, n=8",0.064 OD
same,"viability, mean optical density","[3]; 40 μl/ml, addition at 1DIV, 8 days, n=8",0.057 OD
same,"viability, mean optical density","[3]; 80 μl/ml, addition at 1DIV, 8 days, n=8",0.059 OD
same,"viability, mean optical density","[3]; 160 μl/ml, addition at 1DIV, 8 days, n=8",0.065 OD
same,maximum neuronal viability (% of untreated control),[3]; [15],155%
same,"viability, mean in % (control is 100%)","[3]; Lohman or Hisex Brown, chicken, 8 days, 1.25 μl/ml",93.86%
same,"viability, mean in % (control is 100%)","[3]; Lohman or Hisex Brown, chicken, 8 days, 2.5 μl/ml",95.97%
same,"viability, mean in % (control is 100%)","[3]; Lohman or Hisex Brown, chicken, 8 days, 5 μl/ml",98.32%
same,"viability, mean in % (control is 100%)","[3]; Lohman or Hisex Brown, chicken, 8 days, 10 μl/ml",142.18%
same,"viability, mean in % (control is 100%)","[3]; Lohman or Hisex Brown, chicken, 8 days, 20 μl/ml",155.61%
same,"viability, mean in % (control is 100%)","[3]; Lohman or Hisex Brown, chicken, 8 days, 80 μl/ml",109.66%
same,"viability, mean in % (control is 100%)","[3]; Lohman or Hisex Brown, chicken, 8 days, 160 μl/ml",120.33%
"Cc1c(C)c2c(c(C)c1O)CCC(C)(C(=O)O)O2 (stereo not drawn) [Trolox, 6-Hydroxy-2,5,7,8-tetramethylchroman2-carboxylic acid]","viability, mean optical density","[3]; 1 μM, addition at 1DIV, 8 days, n=8",0.052 OD
same,"viability, mean optical density","[3]; 2 μM, addition at 1DIV, 8 days, n=8",0.056 OD
same,"viability, mean optical density","[3]; 4 μM, addition at 1DIV, 8 days, n=8",0.058 OD
same,"viability, mean optical density","[3]; 8 μM, addition at 1DIV, 8 days, n=8",0.076 OD
same,"viability, mean optical density","[3]; 16 μM, addition at 1DIV, 8 days, n=8",0.180 OD
same,"viability, mean optical density","[3]; 31.25 μM, addition at 1DIV, 8 days, n=8",0.297 OD
same,"viability, mean optical density","[3]; 62.5 μM, addition at 1DIV, 8 days, n=8",0.338 OD
same,"viability, mean optical density","[3]; 125 μM, addition at 1DIV, 8 days, n=8",0.262 OD
same,viability at 1 µM,[3]; [16],97.8%
same,viability at 2 µM,[3]; [16],102%
same,viability at 4 µM,[3]; [16],107%
same,viability at 8 µM,[3]; [16],140%
same,viability at 16 µM,[3]; [16],331%
same,viability at 31.25 µM,[3]; [16],546%
same,viability at 62.5 µM,[3]; [16],620%
same,viability at 125 µM,[3]; [16],482%
same,maximum neuronal viability (% of untreated control),[3]; [15],620%
